Like-named read-outs stand apart in the source and are kept apart here.
How the values were obtained:
[1] = test system: Polygonum convolvulus (POLCO, wild buckwheat); assay: greenhouse post-emergence herbicidal activity; type: in vivo; details: 20 DAT
Source text: (§1) For the post-emergence treatment, the test plants were first grown to a height of 3 to 20 cm, depending on the plant habit, and only then treated. Here, the herbicidal compositions were suspended or emulsified in water as distribution medium and sprayed using finely distributing nozzles.
(§2) In the examples, the solvent used was water. […] In the examples, the solvent used was water.
(§3) Dicamba was used as a commercial aqueous solution having an active ingredient concentration of 480 g/l.
(§4) The test period extended over 21 days.
(§5) The evaluation for the damage caused by the chemical compositions was carried out using a scale from 0 to 100%, compared to the untreated control plants. Here, 0 means no damage and 100 means complete destruction of the plants.
(§6) The value E, which is to be expected if the activity of the individual compounds is just additive, was calculated using the method of S. R. Colby (1967) “Calculating synergistic and antagonistic responses of herbicide combinations”, Weeds 15, p. 22 ff. E=X+Y−(X·Y/100) where X=effect in percent using herbicide A at an application rate a; • Y=effect in percent using herbicide B at an application rate b; • E=expected effect (in %) of A+B at application rates a+b.
(§7) If the value observed in this manner is higher than the value E calculated according to Colby, a synergistic effect is present.

[2] = test system: Ipomoea purpurea (PHBPU, tall morningglory); assay: greenhouse post-emergence herbicidal activity; type: in vivo; details: 20 DAT
Source text: as §1, §2, §3, §4, §5, §6, §7

[3] = test system: Setaria faberii (SETFA, giant foxtail); assay: greenhouse post-emergence herbicidal activity; type: in vivo; details: Setaria faberi, read-out: observed % activity; for inhibition at 50 g/ha: 50 g ai/ha; for inhibition at 100 g/ha: 100 g ai/ha
Source text: as §1, §2, §3, §4, §5, §6, §7

[4] = test system: Setaria lutescens (SETLU, yellow foxtail); assay: greenhouse post-emergence herbicidal activity; type: in vivo; details: read-out: observed % activity; for inhibition at 50 g/ha: 50 g ai/ha; for inhibition at 13 g/ha: 13 g ai/ha
Source text: as §1, §2, §3, §4, §5, §6, §7

[5] = test system: Alopecurus myosuroides (ALOMY, blackgrass); assay: greenhouse post-emergence herbicidal activity; type: in vivo; details: read-out: observed % activity; for inhibition at 50 g/ha: 50 g ai/ha; for inhibition at 13 g/ha: 13 g ai/ha
Source text: as §1, §2, §3, §4, §5, §6, §7

[6] = test system: Echinochloa crus-galli (ECHCG, barnyardgrass); assay: greenhouse post-emergence herbicidal activity; type: in vivo; details: read-out: observed % activity; for inhibition at 100 g/ha: 100 g ai/ha; for inhibition at 13 g/ha: 13 g ai/ha
Source text: as §1, §2, §3, §4, §5, §6, §7

[7] = test system: Abutilon theophrasti (ABUTH, velvetleaf); assay: greenhouse pre-emergence herbicidal activity; type: in vivo; details: read-out: observed % activity; for inhibition at 200 g/ha: 200 g ai/ha; for inhibition at 25 g/ha: 25 g ai/ha; for inhibition at 50 g/ha: 50 g ai/ha
Experimental: (§8) The containers were irrigated gently to promote germination and growth and subsequently covered with transparent plastic hoods until plant had rooted.
as §2, §3, §4, §5, §6, §7

[8] = test system: Helianthus annuus (HELAN, sunflower); assay: greenhouse pre-emergence herbicidal activity; type: in vivo; details: read-out: observed % activity; for inhibition at 50 g/ha: 50 g ai/ha; for inhibition at 100 g/ha: 100 g ai/ha; for inhibition at 200 g/ha: 200 g ai/ha; for inhibition at 25 g/ha: 25 g ai/ha
Experimental: as §8, §2, §3, §4, §5, §6, §7

[9] = test system: Xanthium strumarium (XANST, cocklebur); assay: greenhouse pre-emergence herbicidal activity; type: in vivo; details: read-out: observed % activity; for inhibition at 100 g/ha: 100 g ai/ha; for inhibition at 200 g/ha: 200 g ai/ha; for inhibition at 25 g/ha: 25 g ai/ha
Experimental: as §8, §2, §3, §4, §5, §6, §7

[10] = test system: Matricaria inermis (MATIN, scentless mayweed); assay: greenhouse pre-emergence herbicidal activity; type: in vivo; details: read-out: observed % activity; for inhibition at 200 g/ha: 200 g ai/ha; for inhibition at 50 g/ha: 50 g ai/ha
Experimental: as §8, §2, §3, §4, §5, §6, §7

[11] = test system: Ambrosia artemisifolia (AMBEL, common ragweed); assay: greenhouse pre-emergence herbicidal activity; type: in vivo; details: read-out: observed % activity; for inhibition at 200 g/ha: 200 g ai/ha; for inhibition at 50 g/ha: 50 g ai/ha
Experimental: as §8, §2, §3, §4, §5, §6, §7

harmful plants = details: known from Y. Yamaji et al., 2006; cited from earlier work

COc1c(Cl)ccc(Cl)c1C(=O)O [dicamba]
observed activity in % destruction 20 days after treatment ([1]; 50 g ai/ha): 80%
observed activity in % destruction 20 days after treatment ([2]; 200 g ai/ha): 90%
inhibition at 50 g/ha ([3]; 168 h, 7 DAT): 25%
inhibition at 100 g/ha ([3]; 168 h, 7 DAT): 25%
inhibition at 50 g/ha ([3]; 480 h, 20 DAT): 0%
inhibition at 100 g/ha ([3]; 480 h, 20 DAT): 0%
inhibition at 50 g/ha ([4]; 168 h, 7 DAT): 40%
inhibition at 50 g/ha ([4]; 480 h, 20 DAT): 10%
inhibition at 50 g/ha ([5]; 168 h, 7 DAT): 10%
inhibition at 50 g/ha ([5]; 480 h, 20 DAT): 20%
inhibition at 100 g/ha ([6]; 168 h, 7 DAT): 20%
inhibition at 100 g/ha ([6]; 480 h, 20 DAT): 15%
inhibition at 200 g/ha ([7]; 192 h, 8 DAT): 40%
inhibition at 200 g/ha ([7]; 480 h, 20 DAT): 70%
inhibition at 50 g/ha ([8]; 192 h, 8 DAT): 30%
inhibition at 100 g/ha ([8]; 192 h, 8 DAT): 30%
inhibition at 200 g/ha ([8]; 192 h, 8 DAT): 75%
inhibition at 50 g/ha ([8]; 480 h, 20 DAT): 35%
inhibition at 100 g/ha ([8]; 480 h, 20 DAT): 50%
inhibition at 200 g/ha ([8]; 480 h, 20 DAT): 85%
inhibition at 100 g/ha ([9]; 192 h, 8 DAT): 50%
inhibition at 200 g/ha ([9]; 192 h, 8 DAT): 85%
inhibition at 100 g/ha ([9]; 480 h, 20 DAT): 80%
inhibition at 200 g/ha ([9]; 480 h, 20 DAT): 95%
inhibition at 200 g/ha ([10]; 192 h, 8 DAT): 50%
inhibition at 200 g/ha ([10]; 480 h, 20 DAT): 65%
inhibition at 200 g/ha ([11]; 192 h, 8 DAT): 65%
inhibition at 200 g/ha ([11]; 480 h, 20 DAT): 95%

Cn1nc(C(F)(F)F)c(CS(=O)(=O)C2=NOC(C)(C)C2)c1OC(F)F [pyroxasulfone, 3-[5-(difluoromethoxy)-1-methyl-3-(trifluoromethyl)pyrazol-4-ylmethylsulfonyl]-4,5-dihydro-5,5-dimethyl-1,2-oxazole]
observed activity in % destruction 20 days after treatment ([1]; 100 g ai/ha): 55%
observed activity in % destruction 20 days after treatment ([2]; 13 g ai/ha): 30%
inhibition at 50 g/ha ([3]; 168 h, 7 DAT): 65%
inhibition at 50 g/ha ([3]; 480 h, 20 DAT): 90%
inhibition at 13 g/ha ([4]; 168 h, 7 DAT): 0%
inhibition at 13 g/ha ([4]; 480 h, 20 DAT): 65%
inhibition at 13 g/ha ([5]; 168 h, 7 DAT): 0%
inhibition at 13 g/ha ([5]; 480 h, 20 DAT): 15%
inhibition at 13 g/ha ([6]; 168 h, 7 DAT): 25%
inhibition at 13 g/ha ([6]; 480 h, 20 DAT): 80%
post-emergence activity (harmful plants): only poor post-emergence activity
inhibition at 25 g/ha ([7]; 192 h, 8 DAT): 50%
inhibition at 50 g/ha ([7]; 192 h, 8 DAT): 50%
inhibition at 25 g/ha ([7]; 480 h, 20 DAT): 80%
inhibition at 50 g/ha ([7]; 480 h, 20 DAT): 98%
inhibition at 25 g/ha ([8]; 192 h, 8 DAT): 0%
inhibition at 50 g/ha ([8]; 192 h, 8 DAT): 0%
inhibition at 25 g/ha ([8]; 480 h, 20 DAT): 0%
inhibition at 50 g/ha ([8]; 480 h, 20 DAT): 0%
inhibition at 25 g/ha ([9]; 192 h, 8 DAT): 0%
inhibition at 25 g/ha ([9]; 480 h, 20 DAT): 0%
inhibition at 50 g/ha ([10]; 192 h, 8 DAT): 20%
inhibition at 50 g/ha ([10]; 480 h, 20 DAT): 85%
inhibition at 50 g/ha ([11]; 192 h, 8 DAT): 50%
inhibition at 50 g/ha ([11]; 480 h, 20 DAT): 80%

From US9253984B2, “Herbicidal compositions comprising pyroxasulfone VII” (BASF SE, priority 2008, dated 2016)
